Our source for the Percentage inhibition and inhibition values is article PMC3639963, “A New Class of Small Molecule Inhibitor of BMP Signaling” (PLoS ONE, 2013).

Values joined by “and” are separate entries in the source; they are usually repeats but may differ in a detail not shown here. Equal entries are not always repeated. Some results are limits rather than exact numbers.

Common to all, as to experiment: Nanosyn kinase profiling
Common to all, as to assay type: biochemical

The target of one assay is T1, ABL1 (Homo sapiens, UniProt P00519).
T1 construct: purchased Nanosyn (enzymatic panel); SGC in-house recombinant human kinases (DSF panel); Invitrogen (ALK1-6)
Particulars: for Percentage inhibition: 0.1 µM; for inhibition at 1 µM: 1 µM inhibitor. An outline of the steps:
(§1)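 Percent inhibition of each kinase was measured with the inhibitor at 0.1 µM and at 1 µM, as part of a 200-kinase human selectivity panel.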

The next assay addresses T2, JAK3 (Homo sapiens, UniProt P52333).
T2 construct: purchased Nanosyn (enzymatic panel); SGC in-house recombinant human kinases (DSF panel); Invitrogen (ALK1-6)
T2 sequence (P52333 1-1124): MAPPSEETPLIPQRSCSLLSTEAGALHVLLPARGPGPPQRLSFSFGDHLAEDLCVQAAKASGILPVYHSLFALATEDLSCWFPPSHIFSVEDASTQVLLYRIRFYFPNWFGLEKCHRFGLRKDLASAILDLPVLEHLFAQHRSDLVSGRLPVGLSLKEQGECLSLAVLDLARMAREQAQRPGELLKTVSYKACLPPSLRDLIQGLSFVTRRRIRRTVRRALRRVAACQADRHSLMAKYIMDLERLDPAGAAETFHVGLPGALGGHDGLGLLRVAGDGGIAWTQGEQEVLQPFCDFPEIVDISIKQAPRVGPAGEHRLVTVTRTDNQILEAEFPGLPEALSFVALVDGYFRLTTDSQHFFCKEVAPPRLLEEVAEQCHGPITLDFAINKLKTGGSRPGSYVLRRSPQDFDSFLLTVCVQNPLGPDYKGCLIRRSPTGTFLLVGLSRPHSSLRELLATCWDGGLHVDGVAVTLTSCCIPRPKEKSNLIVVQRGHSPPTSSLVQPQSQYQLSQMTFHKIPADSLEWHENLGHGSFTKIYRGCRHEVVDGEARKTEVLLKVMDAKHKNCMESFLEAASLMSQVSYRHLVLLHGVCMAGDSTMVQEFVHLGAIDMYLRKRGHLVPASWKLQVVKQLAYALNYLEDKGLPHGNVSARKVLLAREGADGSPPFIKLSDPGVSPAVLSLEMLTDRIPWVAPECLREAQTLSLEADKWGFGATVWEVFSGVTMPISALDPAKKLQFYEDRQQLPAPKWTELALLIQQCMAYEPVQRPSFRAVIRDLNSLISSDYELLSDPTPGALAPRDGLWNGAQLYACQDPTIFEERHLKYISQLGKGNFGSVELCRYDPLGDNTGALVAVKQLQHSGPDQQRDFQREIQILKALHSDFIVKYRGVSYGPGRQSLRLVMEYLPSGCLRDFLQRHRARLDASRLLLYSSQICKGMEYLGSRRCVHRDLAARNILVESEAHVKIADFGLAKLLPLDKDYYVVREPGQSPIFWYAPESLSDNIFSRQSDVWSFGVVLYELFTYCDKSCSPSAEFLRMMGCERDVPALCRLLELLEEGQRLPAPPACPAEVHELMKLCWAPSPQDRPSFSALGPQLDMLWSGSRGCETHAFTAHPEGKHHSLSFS
The following applies: read-out: Percentage inhibition; for inhibition at 0.1 µM: 0.1 µM inhibitor; for inhibition at 1 µM: 1 µM inhibitor. An outline of the steps:
as §1

A further assay deals with T3, MARK4 (Homo sapiens, UniProt Q96L34).
T3 construct: purchased Nanosyn (enzymatic panel); SGC in-house recombinant human kinases (DSF panel); Invitrogen (ALK1-6)
T3 sequence (Q96L34 1-752): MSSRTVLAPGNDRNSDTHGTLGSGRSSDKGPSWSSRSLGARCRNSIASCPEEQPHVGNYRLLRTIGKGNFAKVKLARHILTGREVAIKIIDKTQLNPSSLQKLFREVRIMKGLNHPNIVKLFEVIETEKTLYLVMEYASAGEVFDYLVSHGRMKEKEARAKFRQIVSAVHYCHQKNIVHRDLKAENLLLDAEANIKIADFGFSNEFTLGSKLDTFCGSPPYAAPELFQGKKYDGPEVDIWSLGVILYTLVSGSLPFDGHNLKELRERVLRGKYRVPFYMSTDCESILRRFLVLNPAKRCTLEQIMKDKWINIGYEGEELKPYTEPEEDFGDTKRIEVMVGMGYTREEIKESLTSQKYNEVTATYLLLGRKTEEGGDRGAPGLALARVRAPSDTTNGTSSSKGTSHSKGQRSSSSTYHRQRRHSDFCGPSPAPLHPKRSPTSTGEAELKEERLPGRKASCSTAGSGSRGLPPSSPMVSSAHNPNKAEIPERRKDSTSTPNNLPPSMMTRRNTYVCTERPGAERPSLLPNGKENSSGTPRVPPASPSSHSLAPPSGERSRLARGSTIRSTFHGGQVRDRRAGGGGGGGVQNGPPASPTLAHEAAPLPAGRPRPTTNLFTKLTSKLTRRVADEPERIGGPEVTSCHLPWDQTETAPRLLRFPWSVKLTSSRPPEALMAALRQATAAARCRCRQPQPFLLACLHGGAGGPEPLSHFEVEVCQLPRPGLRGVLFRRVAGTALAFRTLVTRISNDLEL
The following applies: read-out: Percentage inhibition; for inhibition at 0.1 µM: 0.1 µM inhibitor; for inhibition at 1 µM: 1 µM inhibitor. An outline of the steps:
as §1

A further assay concerns the target T4, PIM3 (Homo sapiens, UniProt Q86V86).
T4 construct: purchased Nanosyn (enzymatic panel); SGC in-house recombinant human kinases (DSF panel); Invitrogen (ALK1-6)
Particulars: read-out: Percentage inhibition; for inhibition at 0.1 µM: 0.1 µM inhibitor; for inhibition at 1 µM: 1 µM inhibitor. An outline of the steps:
as §1

Setting [1] is: read-out: Percentage inhibition.

T1 sequence (P00519 whole entry): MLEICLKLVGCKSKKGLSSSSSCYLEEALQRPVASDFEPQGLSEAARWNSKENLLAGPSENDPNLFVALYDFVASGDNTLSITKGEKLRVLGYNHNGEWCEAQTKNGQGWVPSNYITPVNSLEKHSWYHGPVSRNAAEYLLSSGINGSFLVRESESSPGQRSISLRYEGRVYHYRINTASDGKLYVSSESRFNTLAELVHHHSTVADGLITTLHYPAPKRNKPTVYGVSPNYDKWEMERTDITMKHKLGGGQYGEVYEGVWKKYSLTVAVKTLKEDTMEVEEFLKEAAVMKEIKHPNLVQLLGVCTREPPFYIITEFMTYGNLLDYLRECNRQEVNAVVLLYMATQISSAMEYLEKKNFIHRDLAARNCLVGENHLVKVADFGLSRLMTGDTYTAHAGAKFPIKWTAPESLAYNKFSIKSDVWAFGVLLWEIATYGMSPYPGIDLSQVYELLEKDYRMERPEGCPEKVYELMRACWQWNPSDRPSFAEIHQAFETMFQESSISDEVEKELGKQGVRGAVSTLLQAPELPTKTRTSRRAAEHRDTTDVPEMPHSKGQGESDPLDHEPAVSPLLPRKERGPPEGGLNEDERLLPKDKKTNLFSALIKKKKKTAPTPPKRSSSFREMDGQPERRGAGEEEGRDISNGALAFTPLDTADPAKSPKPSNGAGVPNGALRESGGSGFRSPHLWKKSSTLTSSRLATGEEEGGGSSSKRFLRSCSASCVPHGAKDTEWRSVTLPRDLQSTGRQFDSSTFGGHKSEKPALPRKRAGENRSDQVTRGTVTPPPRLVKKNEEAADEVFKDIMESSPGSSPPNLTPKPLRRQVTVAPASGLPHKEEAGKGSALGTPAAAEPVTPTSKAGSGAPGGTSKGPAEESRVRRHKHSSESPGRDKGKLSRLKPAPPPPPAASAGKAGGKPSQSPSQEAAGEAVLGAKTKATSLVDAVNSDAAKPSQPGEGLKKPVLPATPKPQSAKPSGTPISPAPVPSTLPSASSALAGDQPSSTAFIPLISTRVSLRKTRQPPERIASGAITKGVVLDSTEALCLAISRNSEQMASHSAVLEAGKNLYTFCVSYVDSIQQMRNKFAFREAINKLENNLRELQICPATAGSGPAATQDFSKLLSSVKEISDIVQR

As for `COc1cc(-c2cc(-c3cccc(O)c3)cnc2N)cc(OC)c1OC` [K02288, 3-[6-amino-5-(3,4,5-trimethoxy-phenyl)-pyridin-3-yl]-phenol], the Percentage inhibition on ABL1 (0.1 µM inhibitor) was 79% and > 50%. Moreover, the inhibition at 1 µM on ABL1 (setting [1]) was found to be 89%; on JAK3 it was 2.3%; on MARK4 it was 7.2%; at PIM3 it was 5.9%. For the same molecule, the inhibition at 0.1 µM at JAK3 turned out to be 5.6%; at MARK4, 2.4%; at PIM3 it was 2.3%.

For the molecule `c1ccc2c(-c3cnn4cc(-c5ccc(N6CCNCC6)cc5)cnc34)ccnc2c1` [LDN-193189], the Percentage inhibition at ABL1 (0.1 µM inhibitor) was above 50%. The inhibition at 0.1 µM stood at 62% at ABL1 (0.1 µM inhibitor, read-out: Percentage inhibition); 0% at JAK3; 13% on MARK4; 2% at PIM3. The inhibition at 1 µM is 84% at ABL1 (setting [1]), 0.1% on JAK3, 61% at MARK4 and -1% at PIM3.
